test system: Mono-Mac-6; experiment: cell viability (% survival relative to DMSO control); higher = less cytotoxic; conditions: drug1 concentration 1000 nM; drug2 concentration 500 nM; 72 h
Procedure: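 8x8 drug-combination matrices (0–5000 nM; rosiglitazone and lestaurtinib 0–1000 nM) were run in Mono-Mac-6 cells for 72 h with CellTiter-Glo read-out. Survival is normalised to DMSO and 10 µM bortezomib and clipped at 100%.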

Compound `CC(C)c1onc(-c2c(Cl)cccc2Cl)c1COc1ccc(/C=C/c2cccc(C(=O)O)c2)c(Cl)c1` [GW4064] + Cn1cc(-c2ccncc2)c(-c2ccc(OCc3ccc4ccccc4n3)cc2)n1 [PF-02545920] has a cell viability of 87.9%.

same assay, conditions: drug1 concentration 1000 nM; drug2 concentration 1000 nM; 72 h

Going from `O=C(C1CC1)N1CC[C@@H](C=C2NNC(=O)N2c2ccc(-c3ccc4occc4c3)cc2)C1` + CS(=O)(=O)N1CCN(Cc2cc3nc(-c4cccc5[nH]ncc45)nc(N4CCOCC4)c3s2)CC1 [Pictilisib] to `CC(C)c1onc(-c2c(Cl)cccc2Cl)c1COc1ccc(/C=C/c2cccc(C(=O)O)c2)c(Cl)c1` [GW4064] + Cn1cc(-c2ccncc2)c(-c2ccc(OCc3ccc4ccccc4n3)cc2)n1 [PF-02545920], the cell viability rises from 77.1% to 89.8%.

`O=C(C1CC1)N1CC[C@@H](C=C2NNC(=O)N2c2ccc(-c3ccc4occc4c3)cc2)C1` + C[C@H](NC(=O)c1sccc1OCc1ccc(Cl)cc1)c1ccccc1 [as1949490] was tested, and the cell viability was 91.1%.
Compound `O=C(C1CC1)N1CC[C@@H](C=C2NNC(=O)N2c2ccc(-c3ccc4occc4c3)cc2)C1` + O=C(c1c2ccccc2cc2ccccc12)N1CCC(N2CCC[C@@H](C(=O)N3CCOCC3)C2)CC1 [CP-640186] has a cell viability of 98.8%.

same assay, conditions: drug1 concentration 1000 nM; drug2 concentration 5000 nM; 72 h

First: O=C(C1CC1)N1CC[C@@H](C=C2NNC(=O)N2c2ccc(-c3ccc4occc4c3)cc2)C1 + CS(=O)(=O)N1CCN(Cc2cc3nc(-c4cccc5[nH]ncc45)nc(N4CCOCC4)c3s2)CC1 [Pictilisib]
Second: CC(C)c1onc(-c2c(Cl)cccc2Cl)c1COc1ccc(/C=C/c2cccc(C(=O)O)c2)c(Cl)c1 [GW4064] + Cn1cc(-c2ccncc2)c(-c2ccc(OCc3ccc4ccccc4n3)cc2)n1 [PF-02545920]
The cell viability of the first is lower: 24.2% for the first, 85.1% for the second.

Work on `O=C(C1CC1)N1CC[C@@H](C=C2NNC(=O)N2c2ccc(-c3ccc4occc4c3)cc2)C1` + C[C@H](NC(=O)c1sccc1OCc1ccc(Cl)cc1)c1ccccc1 [as1949490] yielded a cell viability of 91.3%.
`O=C(C1CC1)N1CC[C@@H](C=C2NNC(=O)N2c2ccc(-c3ccc4occc4c3)cc2)C1` + O=C(c1c2ccccc2cc2ccccc12)N1CCC(N2CCC[C@@H](C(=O)N3CCOCC3)C2)CC1 [CP-640186] was tested, and the cell viability was 72.4%.

same assay, conditions: drug1 concentration 5000 nM; drug2 concentration 5 nM; 72 h

Compared with `O=C(C1CC1)N1CC[C@@H](C=C2NNC(=O)N2c2ccc(-c3ccc4occc4c3)cc2)C1` + CS(=O)(=O)N1CCN(Cc2cc3nc(-c4cccc5[nH]ncc45)nc(N4CCOCC4)c3s2)CC1 [Pictilisib], `CC(C)c1onc(-c2c(Cl)cccc2Cl)c1COc1ccc(/C=C/c2cccc(C(=O)O)c2)c(Cl)c1` [GW4064] + Cn1cc(-c2ccncc2)c(-c2ccc(OCc3ccc4ccccc4n3)cc2)n1 [PF-02545920] is higher in cell viability: 88.3% for the first, > 100% for the second.

With `O=C(C1CC1)N1CC[C@@H](C=C2NNC(=O)N2c2ccc(-c3ccc4occc4c3)cc2)C1` + C[C@H](NC(=O)c1sccc1OCc1ccc(Cl)cc1)c1ccccc1 [as1949490] the cell viability was 91.3%.
In the case of `O=C(C1CC1)N1CC[C@@H](C=C2NNC(=O)N2c2ccc(-c3ccc4occc4c3)cc2)C1` + O=C(c1c2ccccc2cc2ccccc12)N1CCC(N2CCC[C@@H](C(=O)N3CCOCC3)C2)CC1 [CP-640186], the cell viability is reported as > 100%.

same assay, conditions: drug1 concentration 5000 nM; drug2 concentration 10 nM; 72 h

First: O=C(C1CC1)N1CC[C@@H](C=C2NNC(=O)N2c2ccc(-c3ccc4occc4c3)cc2)C1 + CS(=O)(=O)N1CCN(Cc2cc3nc(-c4cccc5[nH]ncc45)nc(N4CCOCC4)c3s2)CC1 [Pictilisib]
Second: CC(C)c1onc(-c2c(Cl)cccc2Cl)c1COc1ccc(/C=C/c2cccc(C(=O)O)c2)c(Cl)c1 [GW4064] + Cn1cc(-c2ccncc2)c(-c2ccc(OCc3ccc4ccccc4n3)cc2)n1 [PF-02545920]
The cell viability of the first is lower: 93.1% for the first, 99.8% for the second.

`O=C(C1CC1)N1CC[C@@H](C=C2NNC(=O)N2c2ccc(-c3ccc4occc4c3)cc2)C1` + C[C@H](NC(=O)c1sccc1OCc1ccc(Cl)cc1)c1ccccc1 [as1949490] was tested, and the cell viability was > 100%.
With `O=C(C1CC1)N1CC[C@@H](C=C2NNC(=O)N2c2ccc(-c3ccc4occc4c3)cc2)C1` + O=C(c1c2ccccc2cc2ccccc12)N1CCC(N2CCC[C@@H](C(=O)N3CCOCC3)C2)CC1 [CP-640186] the cell viability was 63.7%.

same assay, conditions: drug1 concentration 5000 nM; drug2 concentration 50 nM; 72 h

Going from `O=C(C1CC1)N1CC[C@@H](C=C2NNC(=O)N2c2ccc(-c3ccc4occc4c3)cc2)C1` + CS(=O)(=O)N1CCN(Cc2cc3nc(-c4cccc5[nH]ncc45)nc(N4CCOCC4)c3s2)CC1 [Pictilisib] to `CC(C)c1onc(-c2c(Cl)cccc2Cl)c1COc1ccc(/C=C/c2cccc(C(=O)O)c2)c(Cl)c1` [GW4064] + Cn1cc(-c2ccncc2)c(-c2ccc(OCc3ccc4ccccc4n3)cc2)n1 [PF-02545920], the cell viability rises from 68.1% to 99.9%.

In the case of `O=C(C1CC1)N1CC[C@@H](C=C2NNC(=O)N2c2ccc(-c3ccc4occc4c3)cc2)C1` + C[C@H](NC(=O)c1sccc1OCc1ccc(Cl)cc1)c1ccccc1 [as1949490], the cell viability is reported as > 100%.
In the case of `O=C(C1CC1)N1CC[C@@H](C=C2NNC(=O)N2c2ccc(-c3ccc4occc4c3)cc2)C1` + O=C(c1c2ccccc2cc2ccccc12)N1CCC(N2CCC[C@@H](C(=O)N3CCOCC3)C2)CC1 [CP-640186], the cell viability is reported as > 100%.

same assay, conditions: drug1 concentration 5000 nM; drug2 concentration 100 nM; 72 h

First: O=C(C1CC1)N1CC[C@@H](C=C2NNC(=O)N2c2ccc(-c3ccc4occc4c3)cc2)C1 + CS(=O)(=O)N1CCN(Cc2cc3nc(-c4cccc5[nH]ncc45)nc(N4CCOCC4)c3s2)CC1 [Pictilisib]
Second: CC(C)c1onc(-c2c(Cl)cccc2Cl)c1COc1ccc(/C=C/c2cccc(C(=O)O)c2)c(Cl)c1 [GW4064] + Cn1cc(-c2ccncc2)c(-c2ccc(OCc3ccc4ccccc4n3)cc2)n1 [PF-02545920]
The cell viability of the first is higher: 84.6% for the first, 82.2% for the second.

For `O=C(C1CC1)N1CC[C@@H](C=C2NNC(=O)N2c2ccc(-c3ccc4occc4c3)cc2)C1` + C[C@H](NC(=O)c1sccc1OCc1ccc(Cl)cc1)c1ccccc1 [as1949490], the cell viability was 69.7%.
With `O=C(C1CC1)N1CC[C@@H](C=C2NNC(=O)N2c2ccc(-c3ccc4occc4c3)cc2)C1` + O=C(c1c2ccccc2cc2ccccc12)N1CCC(N2CCC[C@@H](C(=O)N3CCOCC3)C2)CC1 [CP-640186] the cell viability was 87.4%.

same assay, conditions: drug1 concentration 5000 nM; drug2 concentration 500 nM; 72 h

First: O=C(C1CC1)N1CC[C@@H](C=C2NNC(=O)N2c2ccc(-c3ccc4occc4c3)cc2)C1 + CS(=O)(=O)N1CCN(Cc2cc3nc(-c4cccc5[nH]ncc45)nc(N4CCOCC4)c3s2)CC1 [Pictilisib]
Second: CC(C)c1onc(-c2c(Cl)cccc2Cl)c1COc1ccc(/C=C/c2cccc(C(=O)O)c2)c(Cl)c1 [GW4064] + Cn1cc(-c2ccncc2)c(-c2ccc(OCc3ccc4ccccc4n3)cc2)n1 [PF-02545920]
The cell viability of the first is lower: 81.4% for the first, > 100% for the second.

For `O=C(C1CC1)N1CC[C@@H](C=C2NNC(=O)N2c2ccc(-c3ccc4occc4c3)cc2)C1` + C[C@H](NC(=O)c1sccc1OCc1ccc(Cl)cc1)c1ccccc1 [as1949490], the cell viability was 80.7%.
`O=C(C1CC1)N1CC[C@@H](C=C2NNC(=O)N2c2ccc(-c3ccc4occc4c3)cc2)C1` + O=C(c1c2ccccc2cc2ccccc12)N1CCC(N2CCC[C@@H](C(=O)N3CCOCC3)C2)CC1 [CP-640186] gave a cell viability of 79.5%.

same assay, conditions: drug1 concentration 5000 nM; drug2 concentration 1000 nM; 72 h

First: O=C(C1CC1)N1CC[C@@H](C=C2NNC(=O)N2c2ccc(-c3ccc4occc4c3)cc2)C1 + CS(=O)(=O)N1CCN(Cc2cc3nc(-c4cccc5[nH]ncc45)nc(N4CCOCC4)c3s2)CC1 [Pictilisib]
Second: CC(C)c1onc(-c2c(Cl)cccc2Cl)c1COc1ccc(/C=C/c2cccc(C(=O)O)c2)c(Cl)c1 [GW4064] + Cn1cc(-c2ccncc2)c(-c2ccc(OCc3ccc4ccccc4n3)cc2)n1 [PF-02545920]
The cell viability of the first is lower: 69.4% for the first, 81.4% for the second.

In the case of `O=C(C1CC1)N1CC[C@@H](C=C2NNC(=O)N2c2ccc(-c3ccc4occc4c3)cc2)C1` + C[C@H](NC(=O)c1sccc1OCc1ccc(Cl)cc1)c1ccccc1 [as1949490], the cell viability is reported as 75.6%.
`O=C(C1CC1)N1CC[C@@H](C=C2NNC(=O)N2c2ccc(-c3ccc4occc4c3)cc2)C1` + O=C(c1c2ccccc2cc2ccccc12)N1CCC(N2CCC[C@@H](C(=O)N3CCOCC3)C2)CC1 [CP-640186] was tested, and the cell viability was 99.4%.

same assay, conditions: drug1 concentration 5000 nM; drug2 concentration 5000 nM; 72 h

Going from `O=C(C1CC1)N1CC[C@@H](C=C2NNC(=O)N2c2ccc(-c3ccc4occc4c3)cc2)C1` + CS(=O)(=O)N1CCN(Cc2cc3nc(-c4cccc5[nH]ncc45)nc(N4CCOCC4)c3s2)CC1 [Pictilisib] to `CC(C)c1onc(-c2c(Cl)cccc2Cl)c1COc1ccc(/C=C/c2cccc(C(=O)O)c2)c(Cl)c1` [GW4064] + Cn1cc(-c2ccncc2)c(-c2ccc(OCc3ccc4ccccc4n3)cc2)n1 [PF-02545920], the cell viability rises from 49.3% to 87.7%.

`O=C(C1CC1)N1CC[C@@H](C=C2NNC(=O)N2c2ccc(-c3ccc4occc4c3)cc2)C1` + C[C@H](NC(=O)c1sccc1OCc1ccc(Cl)cc1)c1ccccc1 [as1949490] showed a cell viability of 54.6%.
For `O=C(C1CC1)N1CC[C@@H](C=C2NNC(=O)N2c2ccc(-c3ccc4occc4c3)cc2)C1` + O=C(c1c2ccccc2cc2ccccc12)N1CCC(N2CCC[C@@H](C(=O)N3CCOCC3)C2)CC1 [CP-640186], the cell viability was > 100%.

From the supplement of paper PMC8671470
